Assay results as given in patent US20130058998A1, “ENCAPSULATED N-ACETYLMANNOSAMINE OR N-ACETYLNEURAMINIC ACID TO INCREASE SIALYLATION” (United States of America as represented by the Secretary, …, priority 2011, published 2013).

How the values were obtained:
[1] = tested on: cultured cells; conditions: Charter et al. 2000; cited from earlier work
[2] = tested on: Gne-deficient mouse embryonic stem cells; conditions: growth medium supplemented with ManNAc; Schwarzkopf et al. 2002; cited from earlier work
[3] = tested on: HIBM Gne M712T mutated pups; assay: Survival of mutant HIBM Gne M712T pups after treatment; assay type: in vivo, mouse; conditions: for survival of mutant pups at P5: Gne M712T mutant pups, untreated 8% survived; for survival rates: orally delivered in drinking water, -/- pups
[4] = oral (not liposome-embedded), addition to drinking water

SMILES: CC(=O)CCC(=O)N[C@@H]1C(O)O[C@H](CO)[C@@H](O)[C@@H]1O (some centres unmarked) [ManLev, N-levulinoylmannosamine]
- incorporation of sialic acid analogs (SiaLev or SiaNAz) into cell surface glycoconjugates [1]: resulted in incorporation of the downstream sialic acid analogs

SMILES: CC(=O)N[C@H]1[C@@H](O)[C@H](O)[C@@H](CO)O[C@H]1O [ManNAc, N-acetyl-D-mannosamine]
- sialylation of hyposialylated cells [2]: became resialylated
- survival of mutant pups at P5 ([3]; intravenous (IV) injection at P1, ManNAc-Lipoplex in 2 different mouse backgrounds): 8%
- survival of mutant pups at P5 [3, 4]: 48%
- survival rates [3]: 48%

SMILES: [N-]=[N+]=NCC(=O)N[C@@H]1C(O)O[C@H](CO)[C@@H](O)[C@@H]1O (some centres unmarked) [ManNAz, N-azidoacetyl-mannosamine]
- incorporation of sialic acid analogs (SiaLev or SiaNAz) into cell surface glycoconjugates [1]: resulted in incorporation of the downstream sialic acid analogs

SMILES: CC(=O)N[C@H]1[C@H]([C@H](O)[C@H](O)CO)OC(O)(C(=O)O)C[C@@H]1O (some centres unmarked) [NANA, N-acetylneuraminic acid]
- survival of mutant pups at P5 [3, 4]: 10%
- survival rates [3]: 10%
